Where two headings read alike, the source gives them in different places. Square brackets hold non-standard residues; d marks the D form. Peptide text beside a SMILES is read from it.
Experiments:
[1] = ANTS/DPX liposome leakage assay; details: for Peptide Concentration-induced 50 % ANTS/DPX leakage at pH 4.8 (L/P), 3POPC/1POPG Vesicle / Peptide Concentration-induced 50 % ANTS/DPX leakage at pH 4.8 (L/P), POPC Vesicle / Peptide Concentration-induced 50 % ANTS/DPX leakage at pH 7.4 (L/P), 3POPC/1POPG Vesicle / Peptide Concentration-induced 50 % ANTS/DPX leakage at pH 7.4 (L/P), POPC Vesicle: 0.5 mM vesicles, peptide 0-20 µM, 3 h incubation, lipid per peptide; for Peptide Concentration-induced 50 % ANTS/DPX leakage at pH 4.8 (L/P), 3POPC/1POPG Vesicle / Peptide Concentration-induced 50 % ANTS/DPX leakage at pH 4.8 (L/P), POPC Vesicle: HCl-adjusted PBS 1X pH 4.8; for Peptide Concentration-induced 50 % ANTS/DPX leakage at pH 7.4 (L/P), 3POPC/1POPG Vesicle / Peptide Concentration-induced 50 % ANTS/DPX leakage at pH 7.4 (L/P), POPC Vesicle: PBS 1X pH 7.4, high ratio = more potent
Outline: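 Extruded 0.1 µm POPC or POPC/POPG (3:1) vesicles were loaded with 5 mM ANTS and 12.5 mM DPX, gel-filtered, then used at 0.5 mM lipid with titrated peptide at pH 7.4 or pH 4.8 (acidified PBS). Leakage was read at ex 350/em 510 nm after 3 h against 10% Triton maximum, expressed as lipid/peptide ratio for 50% leakage.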

[2] = tested on: HEK293T; test: cells; type: cell-based, human
[3] = tested on: HMLER‐shEcad tumorspheres; test: cells; type: cell-based, human
[4] = tested on: HMLER‐shEcad; test: cells; type: cell-based, human
Description: (§1) […], and MCF-10A cells were maintained in MEGM with supplements and growth factors bovine pituitary extract, hydrocortisone, human epidermal growth factor, insulin, and gentamicin/amphotericin-B.

[5] = Tryptophan fluorescent binding assay; details: tryptophan fluorescence; 50 µM peptide, lipid titrated 0-5000 µM; phosphate buffered saline 1X, pH 7.4; values as lipid per peptide
Outline: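 Tryptophan fluorescence was used to follow binding of peptide, fixed at 50 µM, to large unilamellar vesicles of POPC:POPG (3:1 ratio) titrated into phosphate buffered saline (1X, pH 7.4). After 1 h incubation, spectra were taken on a BioTek Cytation 5 reader with excitation at 280 nm and emission at 300 to 450 nm (9 nm slits), averaging three scans.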

[6] = tested on: U2OS; type: cell-based, human
[7] = tested on: HMLER; test: cells; type: cell-based, human
Description: as §1

[8] = tested on: MCF‐10A; test: cells; type: cell-based, human
Description: as §1

[9] = tested on: MCF‐10A mammospheres; test: Mammosphere viability assay (TOX8); type: cell-based, human; details: for D‐enantiomer average IC90 against MCF‐10A mammospheres: one average for d‐DHK and d‐EEK together
[10] = tested on: human red blood cells; test: Haemolysis (human red blood cells); type: cell-based; details: PBS, 37 °C, 1 h, one value for DHK, d‐DHK and d‐EEK together
Procedure: Fresh human red blood cells were obtained from Interstate Blood Bank, Inc., and thoroughly washed in PBS until the supernatant was clear. The peptide was serially diluted in PBS starting at a concentration of 200 µM. […] As a positive lysis control, 1% triton was used. […] After centrifugation, 10 µL of supernatant was transferred to 90 µL of ddH2O in a fresh 96‐well plate.

[11] = non-cancerous cells, 2D culture, MTT, 72 h incubation, library peptides n = 2, D-enantiomers and small molecules replicated six times, read-out: IC50 (µM) HEK293T
[12] = 2D culture, MTT, 72 h incubation, library peptides average of two independent experiments (n = 2), D-enantiomers and small molecules replicated six times, read-out: IC50 (µM) HMLER
[13] = non-cancerous cells, 2D culture, MTT, 72 h incubation, library peptides n = 2, D-enantiomers and small molecules replicated six times, read-out: IC50 (µM) MCF-10A
[14] = 2D culture, MTT, 72 h incubation, library peptides average of two independent experiments (n = 2), D-enantiomers and small molecules replicated six times, read-out: IC50 (µM) HMLER-shEcad
[15] = 2D culture, MTT, 72 h incubation, library peptides n = 2, D-enantiomers and small molecules replicated six times, read-out: IC50 (µM) U2OS

Row | IC50 ([4]; 72 h) [µM] | Lipid Concentration-induced 50% Peptide Binding (L/P), 3POPC/1POPG Vesicle [5] [L/P] | Lipid Concentration-induced 50% Peptide Binding (L/P), POPC Vesicle [5] [L/P] | IC50 ([6]; 72 h) [µM] | Structure (SMILES) | Peptide Concentration-induced 50 % ANTS/DPX leakage at pH 4.8 (L/P), 3POPC/1POPG Vesicle [1] [L/P] | Peptide Concentration-induced 50 % ANTS/DPX leakage at pH 4.8 (L/P), POPC Vesicle [1] [L/P] | Peptide Concentration-induced 50 % ANTS/DPX leakage at pH 7.4 (L/P), 3POPC/1POPG Vesicle [1] [L/P] | Peptide Concentration-induced 50 % ANTS/DPX leakage at pH 7.4 (L/P), POPC Vesicle [1] [L/P] | IC50 ([2]; 72 h) [µM] | D‐enantiomer average IC90 against MCF‐10A mammospheres [9] [µM] | IC50 [2, 11] [µM] | IC50 [7, 12] [µM] | IC50 [8, 13] [µM] | IC50 [4, 14] [µM] | HC50 [10] [µM] | IC50 [6, 15] [µM] | also measured
1 | 0.7 ± 0.07 | 1.67 | 1.50 | 19.9 ± 2.65 | CC(C)C[C@H](NC(=O)CN)C(=O)N[C@@H](CC(C)C)C(=O)N[C@@H](CC(=O)O)C(=O)N[C@@H](CC(C)C)C(=O)N[C@@H](CC(C)C)C(=O)N[C@@H](CCC(=O)O)C(=O)N[C@@H](CC(C)C)C(=O)N[C@@H](CC(C)C)C(=O)N[C@@H](CC(C)C)C(=O)N[C@@H](CCCCN)C(=O)N[C@@H](C)C(=O)N[C@@H](C)C(=O)NCC(=O)N[C@@H](Cc1c[nH]c2ccccc12)C(N)=O [DEK] (H-GLLDLLELLLKAAGW-NH2) | 469 | 10 | 773 | 747 | 6.8 ± 0.85 | – | – | – | – | – | – | – | change of ANTS/DPX dye leakage / liposome selectivity at pH 4.8 ([1]; pH = 4.8 compared with physiological pH, anionic versus neutral liposomes): significantly increased dye leakage from anionic liposomes; IC50 ([3]; 16 h): 12 ± 2 µM; IC90 ([3]; 16 h): 22 ± 2 µM
2 | 1.35 ± 0.4 | 1.70 | 1.25 | 9.65 ± 1.2 | CC(C)C[C@H](NC(=O)CN)C(=O)N[C@@H](CC(C)C)C(=O)N[C@@H](CCCCN)C(=O)N[C@@H](CC(C)C)C(=O)N[C@@H](CC(C)C)C(=O)N[C@@H](CCCCN)C(=O)N[C@@H](CC(C)C)C(=O)N[C@@H](CC(C)C)C(=O)N[C@@H](CC(C)C)C(=O)N[C@@H](CCCCN)C(=O)N[C@@H](C)C(=O)N[C@@H](C)C(=O)NCC(=O)N[C@@H](Cc1c[nH]c2ccccc12)C(N)=O [KKK] (H-GLLKLLKLLLKAAGW-NH2) | 81 | 156 | 115 | 1369 | 3.7 ± 0.14 | – | – | – | – | – | – | – | IC50 ([7]; 72 h): 1.57 ± 0.24 µM; IC50 ([8]; 72 h): 1.37 ± 0.24 µM
3 | – | – | – | – | CC[C@@H](C(=O)[C@@H](C)[C@@H](O)[C@H](C)[C@@H]1O[C@@H]([C@@H](CC)C(=O)O)CC[C@@H]1C)[C@H]1O[C@]2(C=C[C@@H](O)[C@]3(CC[C@@](C)([C@H]4CC[C@](O)(CC)[C@H](C)O4)O3)O2)[C@H](C)C[C@@H]1C [Salinomycin, salinomycin, reference compound] | – | – | – | – | – | – | – | – | – | – | – | – | IC90 against MCF‐10A mammospheres [9]: 34 ± 20 µM; IC50 ([2]; Homo sapiens, HEK-293T, 72 h, read-out: IC50 (µM) HEK293T, non-cancerous cells, 2D culture, MTT, 72 h incubation, library peptides n = 2, D-enantiomers and small molecules replicated six times): 0.41 ± 0.1 µM; IC50 ([2]; Homo sapiens, HEK-293T, read-out: IC50 of salinomycin co‐administered with DHK, HEK293T, with […] DHK): 0.1 µM; IC50 ([2]; read-out: IC50 (µM) HEK293T, non-cancerous cells, 2D culture, MTT, 72 h incubation, library peptides n = 2, D-enantiomers and small molecules replicated six times): 0.4 ± 0.1 µM; IC50 ([3]; Homo sapiens, 120 h, read-out: IC50 against HMLER‐shEcad tumorspheres): 22 ± 5 µM; IC90 ([3]; Homo sapiens, read-out: IC90 against HMLER‐shEcad tumorspheres): 44 ± 17 µM; IC50 ([7]; Homo sapiens, 72 h, read-out: IC50 (µM) HMLER, 2D culture, MTT, 72 h incubation, library peptides average of two independent experiments (n = 2), D-enantiomers and small molecules replicated six times): 0.37 ± 0.08 µM; IC50 ([7]; Homo sapiens, read-out: IC50 of salinomycin co‐administered with DHK, HMLER, with […] DHK): 0.05 µM; increase in anticancer efficiency ([7]; addition of 5 µM DHK): 100 fold; IC50 ([7]; read-out: IC50 (µM) HMLER, 2D culture, MTT, 72 h incubation, library peptides average of two independent experiments (n = 2), D-enantiomers and small molecules replicated six times): 0.4 ± 0.1 µM; cancer cell viability ([7]; with 5 µM DHK, at the lowest dose of salinomycin): < 1%; factor by which the dosage of salinomycin required to kill cells is reduced ([7]; with […] DHK, both HMLER and HMLER‐shEcad): 8–27; IC50 ([8]; Homo sapiens, MCF-10A, 72 h, read-out: IC50 (µM) MCF-10A, non-cancerous cells, 2D culture, MTT, 72 h incubation, library peptides n = 2, D-enantiomers and small molecules replicated six times): 9.76 ± 2.28 µM; IC50 ([8]; Homo sapiens, MCF-10A, read-out: IC50 of salinomycin co‐administered with DHK, MCF‐10A, with […] DHK): 1.7 µM; IC50 ([8]; read-out: IC50 (µM) MCF-10A, non-cancerous cells, 2D culture, MTT, 72 h incubation, library peptides n = 2, D-enantiomers and small molecules replicated six times): 9.7 ± 2.3 µM; IC50 ([4]; Homo sapiens, 72 h, read-out: IC50 (µM) HMLER-shEcad, 2D culture, MTT, 72 h incubation, library peptides average of two independent experiments (n = 2), D-enantiomers and small molecules replicated six times): 0.92 ± 0.28 µM; IC50 ([4]; Homo sapiens, read-out: IC50 of salinomycin co‐administered with DHK, HMLER‐shEcad, with […] DHK): 0.03 µM; IC50 ([4]; read-out: IC50 (µM) HMLER-shEcad, 2D culture, MTT, 72 h incubation, library peptides average of two independent experiments (n = 2), D-enantiomers and small molecules replicated six times): 0.9 ± 0.3 µM
4 | – | – | – | – | CC(C)C[C@@H](NC(=O)CN)C(=O)N[C@H](CC(C)C)C(=O)N[C@H](CC(=O)O)C(=O)N[C@H](CC(C)C)C(=O)N[C@H](CC(C)C)C(=O)N[C@H](Cc1c[nH]cn1)C(=O)N[C@H](CC(C)C)C(=O)N[C@H](CC(C)C)C(=O)N[C@H](CC(C)C)C(=O)N[C@H](CCCCN)C(=O)N[C@H](C)C(=O)N[C@H](C)C(=O)NCC(=O)N[C@H](Cc1c[nH]c2ccccc12)C(N)=O [d-DHK] (H-G[dL][dL][dD][dL][dL][dH][dL][dL][dL][dK][dA][dA]G[dW]-NH2) | – | – | – | – | – | 8 ± 5 | 1.55 ± 0.37 | 0.32 ± 0.07 | 0.55 ± 0.06 | 0.23 ± 0.04 | 14 ± 5 | 1.24 ± 0.03 | IC50 ([4]; one value printed for each pair of peptides, cell line not given, read-out: IC50 (anticancer activity)): 0.3 ± 0.1 µM
5 | – | – | – | – | CC(C)C[C@@H](NC(=O)CN)C(=O)N[C@H](CC(C)C)C(=O)N[C@H](CCC(=O)O)C(=O)N[C@H](CC(C)C)C(=O)N[C@H](CC(C)C)C(=O)N[C@H](CCC(=O)O)C(=O)N[C@H](CC(C)C)C(=O)N[C@H](CC(C)C)C(=O)N[C@H](CC(C)C)C(=O)N[C@H](CCCCN)C(=O)N[C@H](C)C(=O)N[C@H](C)C(=O)NCC(=O)N[C@H](Cc1c[nH]c2ccccc12)C(N)=O [d-EEK] (H-G[dL][dL][dE][dL][dL][dE][dL][dL][dL][dK][dA][dA]G[dW]-NH2) | – | – | – | – | – | 8 ± 5 | 2.82 ± 0.07 | 0.29 ± 0.01 | 1.07 ± 0.1 | 0.29 ± 0.01 | 14 ± 5 | 4.78 ± 0.02 | IC50 ([4]; 2D culture, read-out: IC50, HMLER-shEcad cell viability, compound alone): 0.3 ± 0.1 µM; IC50 ([4]; read-out: IC50, HMLER-shEcad cell viability, together with 5 µM caspase inhibitor z-VAD-FMK, 2D culture, co-incubation with 5 µM z-VAD-FMK): 0.3 ± 0.1 µM
